Source: PubChem BioAssay AID1259407 (Chemical Carcinogenesis Research Information System (CCRIS), 2018)
The source made the active and inactive calls. No rule for the calls is given here.

System: CCRIS mutagenicity, Ames/micronucleus/aberration tests
Assay: CCRIS mutagenicity studies

Measured: mutagenic call

S=C=Nc1cccc2ccccc12
inactive: Test System: AMES SALMONELLA TYPHIMURIUM, Strain/Indicator: TA97, Metabolic Activation: NONE, Method: PREINCUBATION inactive; negative | Test System: AMES SALMONELLA TYPHIMURIUM, Strain/Indicator: TA97, Metabolic Activation: RAT, LIVER, S-9, AROCLOR 1254 (10 OR 30%), Method: PREINCUBATION inactive; negative | Test System: AMES SALMONELLA TYPHIMURIUM, Strain/Indicator: TA98, Metabolic Activation: HAMSTER, LIVER, S-9, AROCLOR 1254 (30%), Method: PREINCUBATION inactive; negative | Test System: AMES SALMONELLA TYPHIMURIUM, Strain/Indicator: TA98, Metabolic Activation: NONE, Method: PREINCUBATION inactive; negative | Test System: AMES SALMONELLA TYPHIMURIUM, Strain/Indicator: TA98, Metabolic Activation: RAT, LIVER, S-9, AROCLOR 1254 (1O OR 30%), Method: PREINCUBATION inactive; negative | Test System: AMES SALMONELLA TYPHIMURIUM, Strain/Indicator: TA100, Metabolic Activation: HAMSTER, LIVER, S-9, AROCLOR 1254 (10%), Method: PREINCUBATION inactive; negative | Test System: AMES SALMONELLA TYPHIMURIUM, Strain/Indicator: TA100, Metabolic Activation: NONE, Method: PREINCUBATION inactive; negative | Test System: AMES SALMONELLA TYPHIMURIUM, Strain/Indicator: TA100, Metabolic Activation: RAT, LIVER, S-9, AROCLOR 1254 (10%), Method: PREINCUBATION inactive; negative | Test System: AMES SALMONELLA TYPHIMURIUM, Strain/Indicator: TA100, Metabolic Activation: RAT, LIVER, S-9, AROCLOR 1254 (30%), Method: PREINCUBATION inactive; negative | Test System: AMES SALMONELLA TYPHIMURIUM, Strain/Indicator: TA1535, Metabolic Activation: HAMSTER, LIVER, S-9, AROCLOR 1254 (10 OR 30%), Method: PREINCUBATION inactive; negative | Test System: AMES SALMONELLA TYPHIMURIUM, Strain/Indicator: TA1535, Metabolic Activation: NONE, Method: PREINCUBATION inactive; negative | Test System: AMES SALMONELLA TYPHIMURIUM, Strain/Indicator: TA1535, Metabolic Activation: RAT, LIVER, S-9, AROCLOR 1254 (10 OR 30%), Method: PREINCUBATION inactive; negative | Test System: AMES SALMONELLA TYPHIMURIUM, Strain/Indicator: TA1537, Metabolic Activation: HAMSTER, LIVER, S-9, AROCLOR 1254 (30%), Method: PREINCUBATION inactive; negative | Test System: E. COLI, Strain/Indicator: WP2 UVRA, Metabolic Activation: HAMSTER, LIVER, S-9, AROCLOR 1254, Method: STANDARD PLATE inactive; negative | Test System: E. COLI, Strain/Indicator: WP2 UVRA, Metabolic Activation: HAMSTER, LIVER, S-9, Method: STANDARD PLATE inactive; negative | Test System: E. COLI, Strain/Indicator: WP2 UVRA, Metabolic Activation: MOUSE, LIVER, S-9, AROCLOR 1254, Method: STANDARD PLATE inactive; negative | Test System: E. COLI, Strain/Indicator: WP2 UVRA, Metabolic Activation: MOUSE, LIVER, S-9, Method: STANDARD PLATE inactive; negative | Test System: E. COLI, Strain/Indicator: WP2 UVRA, Metabolic Activation: NONE, Method: STANDARD PLATE inactive; negative | Test System: E. COLI, Strain/Indicator: WP2 UVRA, Metabolic Activation: RAT, LIVER, S-9, AROCLOR 1254, Method: STANDARD PLATE inactive; negative | Test System: E. COLI, Strain/Indicator: WP2 UVRA, Metabolic Activation: RAT, LIVER, S-9, Method: STANDARD PLATE inactive; negative
active: Test System: AMES SALMONELLA TYPHIMURIUM, Strain/Indicator: TA97, Metabolic Activation: HAMSTER, LIVER, S-9, AROCLOR 1254 (30%), Method: PREINCUBATION active; positive | Test System: AMES SALMONELLA TYPHIMURIUM, Strain/Indicator: TA100, Metabolic Activation: HAMSTER, LIVER, S-9, AROCLOR 1254 (30%), Method: PREINCUBATION active; positive
